# Source: patent US20160061841A1, “NRF2-BASED CANCER TREATMENT AND DETECTION METHODS AND USES” (CanBas Co., Ltd., priority 2014, published 2016)
# Where no end group is shown, it is not given here. [ ]: non-standard residue; d: D form. dPhe(F5) = N[C@H](Cc1c(F)c(F)c(F)c(F)c1F)C(=O)O; dBpa = N[C@H](Cc1ccc(C(=O)c2ccccc2)cc1)C(=O)O; dCha = N[C@H](CC1CCCCC1)C(=O)O
# Experiments:
# Assay in all cases: CDDP-enhancing activity of CBP501, cell cycle distribution by flow-cytometry
# Type in all cases: cell-based, Human
# [1] = tested on: NCI-H23; conditions: 1 h co-exposure with CDDP, shift of subG1 or G2/M dose-response curve
# Description: (§1) Cell culture and reagents. Human NSCLC cell lines were cultured in a variety of media, each supplemented with 10% fetal bovine serum (Invitrogen, San Diego, CA) at 37° C. with 5% CO2/air. The media used was RPMI1640 (Sigma-Aldrich, St. Louis, Mo.) for NCI-H1755, NCI-H2030, NCI-H1437, NCI-H2122, NCI-H2172, NCI-H2228, NCI-H1563, NCI-H1944, NCI-H1993, NCI-H1734, NCI-H1568, NCI-H2444, NCI-H2291, NCI-H2347, NCI-H1838, NCI-H1299, HCC827, NCI-H1975, NCI-H1155, NCI-H522 and NCI-H1703; RPMI1640 supplemented with 2mM L-glutamine (Invitrogen) for NCI-H727; RPMI1640 supplemented with 4.5 g/L D-glucose (Sigma-Aldrich), 10 mM HEPES (Sigma-Aldrich) and 1 mM sodium pyruvate (Sigma-Aldrich) for NCI-H358, NCI-H520, NCI-H23, NCI-H647 and NCI-H838; Ham's F12K (Sigma-Aldrich) for A549. CDDP was purchased from Sigma-Aldrich. Sulforaphane (SFN) was purchased from Sigma-Aldrich. All NSCLC cell lines were purchased from ATCC and STR analysis had been performed by ATCC to authenticate the identity of each cell line. All cell lines were used within three months after thawing.
# (§2) Cell cycle analysis. Cells were plated in 24-well plates and incubated for 24 hours. The cells were treated with or without CDDP plus or minus CBP501 at the indicated concentration for the indicated times. The cells were harvested and stained with Krishan's solution (0.1% sodium citrate, 50 μg/ml propidium iodide, 20 μg/ml RNase A, 0.5% NP-40). Stained cells were analyzed by FACSCalibur (Becton Dickinson, Franklin Lakes, N.J.) using CELLQuest software (Becton Dickinson).
# (§3) Here, the change in the cell cycle distribution, as indicated by flow-cytometry, was used to estimate the sensitivity of NSCLC cell lines to CBP501-enhanced cytotoxicity to CDDP. Such changes were monitored in cells treated with CDDP in the presence or absence of CBP501. The utility of this analysis for assessing the effectiveness of anti-cancer therapy is based on the absence of functioning G1/S checkpoint regulation in the cell cycle of many types of cancer cells (14). Lack of a functional G1/S checkpoint leads to an accumulation of cancer cells in G2/M phase upon their exposure to DNA-damaging anticancer agents (14, 15).
# (§4) To assess the CDDP-enhancing activity of CBP501, one can examine either of two dose-response curves in which the X-axis indicates the dose of CDDP and Y-axis indicates either the number of cells in subG1 or in G2/M. The transition and peak in either dose-response curve will shift to the left in the presence of CBP501 for CBP501-sensitive cells, indicating the enhanced ability of CDDP to change the cell cycle distribution. […] Using this criterion based on CBP501's ability to shift the CDDP-induced subG1 or G2/M dose-response curve, twelve NSCLC cell lines were classified as being either, CBP501-sensitive or CBP501-insensitive. Cell lines that shifted the curve two fold or more were classified as CBP501 sensitive cells and those that shifted the curve less than two fold were classified as CBP501 insensitive (Table 1). Classification of CBP501 sensitivity in NSCLC cell lines.
# (§5) Although the expression of Nrf2 or its several downstream transcription targets may possibly predict resistance to CBP501, the general reliability of these predictive markers for CBP501-sensitivity remained to be established. The combination effect of CBP501 and CDDP in sixteen additional NSCLC cell lines, classifying each as CBP501 sensitive or insensitive by the prior criteria was analyzed (Table 2). Classification of CBP501 sensitivity in additional NSCLC cell lines.
# [2] = tested on: A549; conditions: 1 h co-exposure with CDDP, shift of subG1 or G2/M dose-response curve
# Description: as §1, §2, §3, §4, §5
# [3] = tested on: NCI-H1299; conditions: 1 h co-exposure with CDDP, shift of subG1 or G2/M dose-response curve
# Description: as §1, §2, §3, §4, §5
# [4] = tested on: HCC827; conditions: 1 h co-exposure with CDDP
# Description: as §1, §2, §3, §4, §5
# [5] = tested on: NCI-H647; conditions: 1 h co-exposure with CDDP, shift of subG1 or G2/M dose-response curve
# Description: as §1, §2, §3, §4, §5
# [6] = tested on: NCI-H1734; conditions: 1 h co-exposure with CDDP
# Description: as §1, §2, §3, §4, §5
# [7] = tested on: NCI-H522; conditions: 1 h co-exposure with CDDP
# Description: as §1, §2, §3, §4, §5
# [8] = tested on: NCI-H1975; conditions: 1 h co-exposure with CDDP
# Description: as §1, §2, §3, §4, §5
# [9] = tested on: NCI-H358; conditions: 1 h co-exposure with CDDP, shift of subG1 or G2/M dose-response curve
# Description: as §1, §2, §3, §4, §5
# [10] = tested on: NCI-H727; conditions: 1 h co-exposure with CDDP
# Description: as §1, §2, §3, §4, §5
# [11] = tested on: NCI-H1155; conditions: 1 h co-exposure with CDDP
# Description: as §1, §2, §3, §4, §5
# [12] = tested on: NCI-H1755; conditions: 1 h co-exposure with CDDP
# Description: as §1, §2, §3, §4, §5
# [13] = tested on: NCI-H1563; conditions: 1 h co-exposure with CDDP
# Description: as §1, §2, §3, §4, §5
# [14] = tested on: NCI-H520; conditions: 1 h co-exposure with CDDP
# Description: as §1, §2, §3, §4, §5
# [15] = tested on: NCI-H1993; conditions: 1 h co-exposure with CDDP, shift of subG1 or G2/M dose-response curve
# Description: as §1, §2, §3, §4, §5
# [16] = shift of subG1 or G2/M dose-response curve
substance,measurement,setting,value
"(d-Bpa)(d-Ser)(d-Trp)(d-Ser)(d-Phe-2,3,4,5,6-F)(d-Cha)(d-Arg)(d-Arg)(d-Arg)(d-Gln)(d-Arg)(d-Arg) ([dBpa][dS][dW][dS][dPhe(F5)][dCha][dR][dR][dR][dQ][dR][dR]) [CBP501, anti-cancer drug candidate; calmodulin modulation and G2 checkpoint abrogation]",Folds increase of CDDP effect by CBP501,[1],4 fold
same,Folds increase of CDDP effect by CBP501,[2],2 fold
same,Folds increase of CDDP effect by CBP501,[3],8 fold
same,Definition of CBP501 sensitivity,[4],Sensitive (Cell lines that shifted the curve two fold or more were classified as CBP501 sensitive cells)
same,Folds increase of CDDP effect by CBP501,[4]; [16],4 fold
same,Folds increase of CDDP effect by CBP501,[5],1.5 fold
same,Definition of CBP501 sensitivity,[6],Sensitive (Cell lines that shifted the curve two fold or more were classified as CBP501 sensitive cells)
same,Folds increase of CDDP effect by CBP501,[6]; [16],2 fold
same,Definition of CBP501 sensitivity,[7],Sensitive (Cell lines that shifted the curve two fold or more were classified as CBP501 sensitive cells)
same,Folds increase of CDDP effect by CBP501,[7]; [16],2 fold
same,Definition of CBP501 sensitivity,[8],Sensitive (Cell lines that shifted the curve two fold or more were classified as CBP501 sensitive cells)
same,Folds increase of CDDP effect by CBP501,[8]; [16],2 fold
same,Folds increase of CDDP effect by CBP501,[9],1 fold
same,Definition of CBP501 sensitivity,[10],Insensitive (those that shifted the curve less than two fold were classified as CBP501 insensitive)
same,Folds increase of CDDP effect by CBP501,[10]; [16],1 fold
same,Definition of CBP501 sensitivity,[11],Insensitive (those that shifted the curve less than two fold were classified as CBP501 insensitive)
same,Folds increase of CDDP effect by CBP501,[11]; [16],1.5 fold
same,Definition of CBP501 sensitivity,[12],Insensitive (those that shifted the curve less than two fold were classified as CBP501 insensitive)
same,Folds increase of CDDP effect by CBP501,[12]; [16],1 fold
same,Definition of CBP501 sensitivity,[13],Insensitive (those that shifted the curve less than two fold were classified as CBP501 insensitive)
same,Folds increase of CDDP effect by CBP501,[13]; [16],1.5 fold
same,Definition of CBP501 sensitivity,[14],Sensitive (Cell lines that shifted the curve two fold or more were classified as CBP501 sensitive cells)
same,Folds increase of CDDP effect by CBP501,[14]; [16],2 fold
same,Folds increase of CDDP effect by CBP501,[15],2 fold
